Measurements taken from patent US20190202836A1, “SELECTIVE DUAL INHIBITORS OF PI3 DELTA AND GAMMA PROTEIN KINASES” (Rhizen Pharmaceuticals SA, priority 2014, published 2019).

Assays:
[1] = Oral pharmacokinetics in rats; assay type: in vivo; settings: Rat, 10 mg/kg
Protocol: The oral bioavailability of Compound A1 (free base) was evaluated in rats and mice. The protocol for the pharmacokinetics studies in rat is provided below.
All animals were fasted overnight (12 hours) before dosing and continued till 4.0 hours after administration of test item. Test item formulations were prepared in 1% Tween 80 and 99% media (0.5% Methyl cellulose, 4000cPs, pH 2.2). The blood samples (150 μL from each animal) were collected from the orbital sinus, and placed into a micro centrifuge tube containing disodium EDTA as an anticoagulant. Blood samples were centrifuged immediately with a speed of 1000 g for 10 min at 4° C. and separated plasma samples were frozen at below −80° C. and stored until analysis. The concentrations of test item in all formulations were analyzed by HPLC. The plasma concentrations of test item in all samples were analyzed by LC-MS/MS. Pharmacokinetic parameters (Cmax, AUC0-t, Tmax, and t^1/2) were estimated by using WinNonlin software. Results are provided in Table 3 for Compound A, A1, and Example 128 of WO 2012/151525 in rats and Compound A1 in mice.

PI3Kα = PI3Kα (Homo sapiens, UniProt P42336); test: Assay 1: Fluorescent (HTRF) determination of PI3 kinase enzyme activity, PI3Kα; assay type: biochemical
Text: Phosphoinositide 3 kinases (PI3K) belong to a class of lipid kinases that play a critical role in the regulation of several key cellular processes. The PI3K are capable of phosphorylating the 3-hydroxy position of phosphoinositols thereby generating second messengers involved in downstream signaling events. The homogenous time resolved fluorescence (HTRF) assay allows detection of 3,4,5-triphosphate (PIPS) formed as a result of phosphorylation of phosphotidylinositol 4,5-biphosphate (PIP2) by PI3K isoforms such as α, β, γ or δ.
PI3K isoform activity for α, β, γ or δ was determined using a PI3K human HTRF™ Assay Kit (Millipore, Billerica, Mass.) with modifications. All incubations were carried out at room temperature. 0.5 μl of 40× inhibitor (in 100% DMSO) or 100% DMSO were added to each well of a 384-well white plate (Greiner Bio-One, Monroe, N.C.) containing 14.5 μl 1× reaction buffer/PIP2 (10 mM MgCl2, 5 mM DTT, 1.38 μM PIP2) mix with or without enzyme, followed by 5 μl/well of 400 μM ATP and incubated for an additional 30 minutes. The reaction was terminated by adding 5 μl/well stop solution (Millipore, Billerica, Mass.). 5 μl of detection mix (Millipore, Billerica, Mass.) was then added to each well and incubated for 6-18 hours in the dark. HRTF ratio was measured on a microplate reader (BMG Labtech., Germany) at an excitation wavelength of 337 nm and emission wavelengths of 665 and 615 nm with an integration time of 400 msec counting delay of 50 msec.

IL-4 = test: Assay 6A: Cytokine assay in human PBMC, PHA induced IL-4; assay type: cell-based; settings: PHA 20 μg/ml, 48 hours, 2-3 independent experiments, read-out: EC50, antigen-induced IL-4
Protocol: The objective of this study was to assess the inhibitory potential of Compound A1 on antigen-induced cytokine release in human PBMC
• Heparinized human whole blood was diluted 1:1 with PBS, over laid on leukocyte separation medium and centrifuged at 400 g for 40 minutes. • Buffy layer was removed and washed with PBS • 0.15*10^6 of PBMCs were plated in 100 μl per well in RPMI media and incubated for 2 h. • 50 μl of 3× of the compound dilution in media was added and incubated for 15 min. • TNFα—induced with 50 μl of LPS in RPMI such that final concentration was 1 μg/ml. Supernatant was collected at 6 hours. • IL-2-induced with 50 μl of PHA in RPMI such that final concentration was 20 μg/ml. Supernatant was collected at 24 hours. • IL-4-induced with 50 μl of PHA in RPMI such that final concentration was 20 μg/ml.
EC50 values were calculated from 2-3 independent experiments.

[2] = tested on: human whole blood B-cell proliferation (CD19); test: Assay 6B: Inhibition of LPS induced CD19 in human whole blood; assay type: cell-based; settings: diluted human whole blood, 72 hours, read-out: EC50, inhibition of LPS-induced human whole blood B-cell proliferation (CD19 expression)
Protocol: The effect of Compound A1 on modulating B-cell receptor (BCR)-activated proliferation of human or mouse B-lymphocytes was determined. CD19 is a protein present on B cells from the earliest recognizable B-lineage cells during development to B-cell blasts but is however lost on maturation to plasma cells. LPS is an endotoxin and a major component of environmental microbes with a potent mitogenic activity on B-cells via the […].
Diluted human whole blood was treated with DMSO or desired concentrations of Compound A1. Samples were induced with LPS 15 minutes after addition of compound and incubated for 72 hours at 37° C. and 5% CO2. Cells positive for CD45 and CD19 were determined by flow cytometry and data are expressed as percentage CD19 positive cells in the total population.

Female Wistar rats = test: Assay 8: Lipopolysaccharide-induced rat air pouch model of inflammation; assay type: in vivo; settings: Neutrophil, oral, 1, 3 and 10 mg/kg, pouch fluid 6 h after LPS, read-out: ED50, reduction of neutrophil migration into the rat air pouch
Protocol: Female Wistar rats (175-200 g) were acclimatized for seven days prior to the start of the experiment. Animals were randomly distributed to various groups based on their body weights. Animals were anaesthetised with ether and subcutaneous air pouches were made by injecting 20 ml of sterile air under the skin in the intra-scapular area (day 0) and maintained with a second 10 ml injection of sterile-filtered air on day 4. On day 6, oral treatment was commenced 1 hour prior to induction of inflammation by s.c. injection of LPS solution on day 6. A volume of 5 ml of LPS solution dissolved in sterile saline (100 μg/kg) was injected into each pouch. Samples of pouch fluid were taken at 6 h after administration of LPS by flushing the pouch with 5 ml of sterile saline and withdrawing 4 ml of fluid. The number of leukocytes present in pouch fluid was determined microscopically using a haemocytometer. Differential cell content was determined by microscopic examination of fluid smears stained with Diff-Quik.

PI3Kα, sequence (P42336 whole entry, canonical isoform): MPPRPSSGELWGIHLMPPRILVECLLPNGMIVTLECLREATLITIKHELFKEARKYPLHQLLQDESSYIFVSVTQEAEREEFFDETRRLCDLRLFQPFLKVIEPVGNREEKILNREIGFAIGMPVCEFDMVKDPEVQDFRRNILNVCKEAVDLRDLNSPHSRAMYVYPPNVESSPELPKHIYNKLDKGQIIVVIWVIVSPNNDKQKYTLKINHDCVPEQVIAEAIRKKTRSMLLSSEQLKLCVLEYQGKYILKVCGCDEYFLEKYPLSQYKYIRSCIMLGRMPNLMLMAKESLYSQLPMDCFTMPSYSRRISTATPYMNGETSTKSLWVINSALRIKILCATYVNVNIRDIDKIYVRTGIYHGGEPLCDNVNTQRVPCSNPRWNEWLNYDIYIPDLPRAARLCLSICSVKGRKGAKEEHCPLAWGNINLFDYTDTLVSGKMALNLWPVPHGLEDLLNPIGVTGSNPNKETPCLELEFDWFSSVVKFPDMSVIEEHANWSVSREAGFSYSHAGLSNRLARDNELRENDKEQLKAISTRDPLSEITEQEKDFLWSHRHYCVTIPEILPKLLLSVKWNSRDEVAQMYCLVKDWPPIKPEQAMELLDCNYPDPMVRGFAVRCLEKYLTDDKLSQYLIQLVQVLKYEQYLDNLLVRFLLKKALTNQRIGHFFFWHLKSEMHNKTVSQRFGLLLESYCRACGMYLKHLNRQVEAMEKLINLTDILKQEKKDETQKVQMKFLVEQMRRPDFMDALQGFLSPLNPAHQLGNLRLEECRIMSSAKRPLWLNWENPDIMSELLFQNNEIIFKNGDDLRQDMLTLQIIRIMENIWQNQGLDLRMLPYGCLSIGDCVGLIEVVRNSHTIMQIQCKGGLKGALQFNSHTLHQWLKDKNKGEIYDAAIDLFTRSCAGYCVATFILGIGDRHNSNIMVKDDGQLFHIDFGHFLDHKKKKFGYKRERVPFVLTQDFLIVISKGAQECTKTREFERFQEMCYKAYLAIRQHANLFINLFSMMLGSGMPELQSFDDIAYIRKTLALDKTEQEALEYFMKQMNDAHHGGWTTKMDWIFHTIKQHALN
PI3Kα, sequence (P27986 whole entry partner, canonical isoform): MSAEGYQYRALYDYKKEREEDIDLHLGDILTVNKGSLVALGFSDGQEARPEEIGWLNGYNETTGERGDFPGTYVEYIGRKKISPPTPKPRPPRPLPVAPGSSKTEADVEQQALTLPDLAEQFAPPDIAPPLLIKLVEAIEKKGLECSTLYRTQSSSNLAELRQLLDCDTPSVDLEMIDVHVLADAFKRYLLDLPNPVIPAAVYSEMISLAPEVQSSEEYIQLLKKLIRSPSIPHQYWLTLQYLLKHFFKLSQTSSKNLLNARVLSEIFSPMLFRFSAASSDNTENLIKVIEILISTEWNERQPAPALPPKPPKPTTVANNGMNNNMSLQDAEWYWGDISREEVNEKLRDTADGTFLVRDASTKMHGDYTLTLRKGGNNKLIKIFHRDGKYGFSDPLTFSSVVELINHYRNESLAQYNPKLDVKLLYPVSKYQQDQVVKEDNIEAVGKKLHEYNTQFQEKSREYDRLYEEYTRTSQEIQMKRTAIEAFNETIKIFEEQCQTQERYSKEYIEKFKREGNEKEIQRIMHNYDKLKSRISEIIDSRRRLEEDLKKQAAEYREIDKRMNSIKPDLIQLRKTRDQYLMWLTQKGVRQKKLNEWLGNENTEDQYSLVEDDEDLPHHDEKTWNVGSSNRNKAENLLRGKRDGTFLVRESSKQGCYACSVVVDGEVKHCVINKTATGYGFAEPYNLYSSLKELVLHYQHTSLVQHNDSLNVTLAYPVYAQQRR

## COc1ccc(-c2nn([C@@H](C)c3oc4cccc(F)c4c(=O)c3-c3cccc(F)c3)c3ncnc(N)c23)cc1NS(C)(=O)=O [Compound A1, (S)—N-(5-(4-amino-1-(1-(5-fluoro-3-(3-fluorophenyl)-4-oxo-4H-chromen-2-yl)ethyl)-1H-pyrazolo[3,4-d]pyrimidin-3-yl)-2-methoxyphenyl)methanesulfonamide]
[1]
  fold increase in AUC0-t as compared to Example 128 of WO 2012/151525: 48 fold
  fold increase in Cmax as compared to Example 128 of WO 2012/151525: ~16 fold
  fold increase in t1/2 as compared to Example 128 of WO 2012/151525: ~1.6 fold
[1]; plasma
  AUC(0-t): 97.8 µM·h
  Cmax: 11.4 µM
  Tmax: 1.83 h
  half-life: 2.45 h
PI3Kα
  inhibition at 10 µM: 23%
PI3Kα; HTRF enzyme assay
  IC50: > 10000 nM
PI3Kα; selectivity profile, enzyme IC50
  Fold-Selectivity PI3Kα: >329 fold
IL-4
  EC50: 3.5 nM
[2]
  EC50: 118 nM
Female Wistar rats
  ED50: 2.65 mg/kg
